Assay results: ChEMBL document CHEMBL1201862, “PubChem BioAssay data set” (2004)
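48-hour exposure; five concentrations; linearly interpolated endpoints. The concentration for 50% growth inhibition is given as GI50.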 Calls of active or inactive are those of the source. Rule as the data show it: active = GI50 up to about 1.1 µM and inactive = higher.

Assays:
Assay in all cases: NCI tumour cell line growth inhibition, 48 h
[1] = system: OVCAR-4
[2] = system: COLO 205
[3] = system: RPMI-8226
[4] = system: LXFL 529
[5] = system: ACHN
[6] = system: SK-MEL-28
[7] = system: SF-295
[8] = system: MOLT-4
[9] = system: SK-OV-3
[10] = system: A498
[11] = system: UO-31
[12] = system: SN12C
[13] = system: SNB-78
[14] = system: SF-268
[15] = system: NCI-H460
[16] = system: HCT-116
[17] = system: DMS-114
[18] = system: NCI-H23
[19] = system: EKVX
[20] = system: UACC-62
[21] = system: XF498
[22] = system: KM12
[23] = system: M14
[24] = system: M19-MEL
[25] = system: SW-620
[26] = system: TK-10
[27] = system: HL-60
[28] = system: HCC 2998
[29] = system: SF-539
[30] = system: UACC-257
[31] = system: SNB-75
[32] = system: OVCAR-8
[33] = system: 786-0
[34] = system: KM-20L2
[35] = system: RXF 393
[36] = system: OVCAR-3
[37] = system: DLD-1
[38] = system: CCRF-CEM
[39] = system: U-251
[40] = system: SNB-19
[41] = system: SK-MEL-5
[42] = system: K562
[43] = system: OVCAR-5
[44] = system: IGROV-1
[45] = system: HT-29
[46] = system: SR
[47] = system: SK-MEL-2
[48] = system: A549
[49] = system: HOP-18
[50] = system: NCI-H522
[51] = system: HOP-92
[52] = system: HOP-62
[53] = system: LOX IMVI
[54] = system: DMS-273
[55] = system: NCI-H226
[56] = system: CAKI-1

Measured: GI50

CC(C)C(=O)/C=C/c1ccc(Cl)c(Cl)c1
inactive: [1] 34.9 µM | [2] 24.9 µM | [3] 13.8 µM | [4] 18.7 µM | [5] 18.5 µM | [6] 18.7 µM | [7] 13.4 µM | [8] 24.4 µM | [9] 28.6 µM | [10] 24.8 µM | [11] 14.2 µM | [12] 15 µM | [13] 34.8 µM | [14] 19.2 µM | [15] 22.2 µM | [16] 3.69 µM | [17] 19.2 µM | [18] 18.3 µM | [19] 23.4 µM | [20] 17.3 µM | [21] 12.5 µM | [22] 14.8 µM | [23] 17.5 µM | [24] 17.7 µM | [25] 15.6 µM | [26] 14.2 µM | [27] 15 µM | [28] 18.8 µM | [29] 13.2 µM | [30] 21.5 µM | [31] > 10 µM | [32] 18.9 µM | [33] 14.5 µM | [34] 19.2 µM | [35] 16.7 µM | [36] 14.5 µM | [37] 14.6 µM | [38] 4.53 µM | [39] 17 µM | [40] 15.1 µM | [41] 14.8 µM | [42] 6.18 µM | [43] 21.7 µM | [44] 20 µM | [45] 19.7 µM | [46] 14.5 µM | [47] 17.5 µM | [48] 21 µM | [49] 11.4 µM | [50] 13.4 µM | [51] 17.4 µM

NC(=O)/N=C1/CCC2C3CCCC2C13
inactive: [1] > 100 µM | [2] > 100 µM | [3] > 100 µM | [4] > 100 µM | [5] > 100 µM | [6] > 100 µM | [7] > 100 µM | [8] > 100 µM | [52] > 100 µM | [53] > 100 µM | [9] > 100 µM | [54] > 100 µM | [11] > 100 µM | [12] > 100 µM | [13] > 100 µM | [14] > 100 µM | [15] > 100 µM | [16] > 100 µM | [55] 81.5 µM | [17] > 100 µM | [18] > 100 µM | [19] > 100 µM | [20] > 100 µM | [21] > 100 µM | [22] > 100 µM | [23] > 100 µM | [25] > 100 µM | [26] > 100 µM | [56] > 100 µM | [27] > 100 µM | [28] > 100 µM | [29] > 100 µM | [30] > 100 µM | [31] > 100 µM | [32] > 100 µM | [33] > 100 µM | [34] > 100 µM | [35] > 100 µM | [36] > 100 µM | [37] > 100 µM | [38] > 100 µM | [39] > 100 µM | [40] > 100 µM | [41] > 100 µM | [42] > 100 µM | [43] > 100 µM | [44] > 100 µM | [45] > 100 µM | [46] > 100 µM | [47] 60.7 µM | [48] > 100 µM | [49] > 100 µM | [50] > 100 µM | [51] > 100 µM
